Entries after “also recorded” stand apart in the source; their conditions may differ. Like-named read-outs stand apart in the source and are kept apart here.
Key:
[1] = system: VSV/SARS-CoV-2 spike pseudovirion; assay type: cell-based
SARS-CoV-2 [2] = assay: BGBC020 and ACCORD-2 studies taken together; assay type: in vivo, human; conditions: across both BGBC020 and ACCORD-2 studies; SoC 10
SARS-CoV-2 [3] = assay: Clinical case report: COVID-19 in a lung cancer patient on bemcentinib+erlotinib; assay type: in vivo
[4] = system: VSV/SARS-CoV-2 spike pseudovirions; assay type: cell-based, Green African Monkey
[5] = system: Mouse Hepatitis Virus (MHV) strain A59; assay: Mouse hepatitis virus (MHV A59) infection of murine bone marrow-derived macrophages, virus load by qRT-PCR; assay type: cell-based; conditions: for MHV virus load in WT mBMDM: WT cells, pretreated and kept on cells
Ebola virus = conditions: one of only two of sixty compounds; cited from earlier work
SARS-CoV-2 [6] = assay type: cell-based; conditions: A549-hACE2 and Vero E6 cells, 1 uM, 24 h, preliminary
SARS-CoV-2 [7] = assay: Phase 2 clinical trial BGBC020 (India, South Africa), hospitalised COVID-19 patients, bemcentinib plus SoC versus SoC
SARS-CoV-2 [8] = assay: SARS-CoV-2 binding on Vero E6 cells (qRT-PCR of bound viral RNA); assay type: cell-based, Green African Monkey; conditions: MOI=5, 15° C., 60 m
Procedure: FIG. 9 • Evaluation of SARS-CoV-2 binding on Vero E6 cells. Cells were incubated with virus (MOI=5) and treatments noted at 15° C. for 60 m. Subsequently, some cells were treated with trypsin to remove bound virus. All cells were washed extensively to remove unbound virus and cells were extracted for RNA. Viral load was determined and normalized for the host gene GAPDH. This is one of 3 different experiments yielding similar results.
In an additional set of studies with Vero E6 cells, it was evaluated whether bemcentinib or PS liposomes blocked VT SARS-CoV-2 binding. Using an MOI of 5, SARS-CoV-2 was incubated at 15° C. for 60 m with Vero E6 cells in the presence of bemcentinib or PS liposomes. Phosphatidylcholine (PC) liposomes were incubated with the cells as a control for PS-mediated viral competition; trypsin was added after virus binding to some cells as a negative control. Cells were placed in Trizol and virus binding was assessed by qRT-PCR detection of viral RNA genomes as compared to the level of a housekeeping gen mRNA, GAPDH. […] Similar studies in Vero E6 cells and other more relevant lung cells will be performed to assess virus internalization following virus binding.

SARS-CoV-2 [9] = conditions: Vero E6 and CaIU3, Dittmar et al; cited from earlier work
SARS-CoV-2 [10] = assay type: cell-based; conditions: MOI=0.1, 24 h, inhibitor added prior to infection
SARS-CoV-2 [11] = assay: SARS-CoV-2 salivary viral load (quantitative PCR) in BGBC020 patients; assay type: in vivo
SARS-CoV-2 [12] = assay type: cell-based; conditions: for sensitivity of SARS-CoV-2 infection to inhibitor: three of the lung tumor lines from John Minna, representative data
SARS-CoV-2 [13] = assay: Phase 2 clinical trial ACCORD-2 (UK), hospitalised COVID-19 patients
SARS-CoV-2 [14] = assay type: cell-based
MHV = assay: MHV-infected C57BL/6 mice treated by gavage
SARS-CoV-2 [15] = assay type: cell-based, Green African Monkey
[16] = one high-risk patient on bemcentinib+erlotinib

CN(C)C(=O)COC(=O)Cc1ccc(OC(=O)c2ccc(NC(=N)N)cc2)cc1 [camostat]
hACE2-dependent pseudovirion infection (luminescence) [1]: blocked infection, but to a lesser extent

Nc1nc(Nc2ccc3c(c2)CC[C@@H](N2CCCC2)CC3)nn1-c1cc2c(nn1)-c1ccccc1CCC2 [bemcentinib, 1-(6,7-dihydro-5H-benzo[6,7]cyclohepta[1,2-c]pyridazin-3-yl)-N^3-((7-(S)-pyrrolidin-1-yl)-6,7,8,9-tetrahydro-5H-benzo[7]annulene-2-yl)-1H-1,2,4-triazole-3,5-diamine]
COVID-19 related deaths (SARS-CoV-2 [2]): 3
COVID-19 disease course (SARS-CoV-2 [3]; [16]): 7 days
course of COVID-19 (SARS-CoV-2 [3]; [16]): very mild
transmission to co-habiting partner (SARS-CoV-2 [3]; one patient on bemcentinib+erlotinib): lack of transmission
SARS-CoV-2 spike dependent pseudovirion infection of Vero E6 cells [4]: highly effective; also recorded: inhibited pseudovirus infection
MHV infection of mBMDM (MHV spike gene, qRT-PCR) ([5]; 1 μM, 24 h, p=0.034 in one-way ANOVA): significantly reducing infection
reduction of MHV virus load in ISG15 (KO) and USP18C61A/C61A mBMDM ([5]; 1 μM, 24 h, trend to lower virus load): not statistically significant; also recorded: did not reach statistical significance
inhibitory effect on virus infection ([5]; BMDM from ISG15-null and USP18C61A/C61A mice, compared with wild type): more variable and in general reduced
viral-induced syncytia formation ([5]; MHV-infected BMDM cultures): reduced
MHV virus load in WT mBMDM ([5]; 1 μM, 24 h): significantly reduced MHV infection
MHV virus load in WT mBMDM ([5]; 1 μM, 24 h, listed as Bemcentinib): reduces virus load
MHV infection of mBMDM (MHV spike gene, qRT-PCR) ([5]; increasing concentrations, MOI 0.01, 24 h): inhibitory trend; also recorded: did inhibit MHV infection
MHV infection of mBMDM (MHV spike gene, qRT-PCR) ([5]; increasing concentrations, MOI 0.01, 24 h, listed as Bemcentinib): inhibits MHV infection
coronavirus load in cells ([5]; primary murine BMDM, MHV, 1 μM, 20 h following infection, preliminary): reduces coronavirus load
effect against Ebola infection in animal models (Ebola virus): some protective/therapeutic effect
SARS-CoV-2 viral transcripts (RNAseq) (SARS-CoV-2 [6]): dramatically reduced
SARS-CoV-2 viral transcripts (RNAseq) (SARS-CoV-2 [6]; listed as Bemcentinib): significantly reduced
QTcF prolongation >501 msec (SARS-CoV-2 [7]; BGBC020): No QTcF prolongation
SUSAR (SARS-CoV-2 [7]; BGBC020): No SUSAR
Time to NEWS2 score ≤2, Hazard ratio (95% CI) (SARS-CoV-2 [7]; BGBC020 interim results, secondary endpoint): 1.10 (0.70, 1.73)
Mortality (SARS-CoV-2 [7]; by D29, of 58 patients, SoC 4 of 57): 2 patients
worsening by 1, 2 or 3 points on WHO scale (SARS-CoV-2 [7]; days 2, 8, 15 and 29, versus standard of care alone): lower proportion of individual patients experiencing worsening
SAE (SARS-CoV-2 [7]; of 58 patients, SoC 4): 5 patients
NEWS2 normalisation (SARS-CoV-2 [7]; versus SoC, interim): favours bemcentinib arm within week 1
time to WHO OCS improvement or discharge (primary endpoint) (SARS-CoV-2 [7]; versus SoC, particularly with higher baseline CRP, interim): Favours the bemcentinib arm
SARS-CoV-2 binding to Vero E6 cells (SARS-CoV-2 [8]): no effect
SARS-CoV-2 infection in both cell types (SARS-CoV-2 [9]): reported to inhibit
SARS-CoV-2 virus load in Huh7 cells (SARS-CoV-2 [10]): inhibited virus infection in a dose dependent manner
patients with salivary viral load below LLOQ (500 copies/mL) (SARS-CoV-2 [11]; absence of another antiviral, day 8 (8 of 12), SoC 37.5%): approximately 66%
patients with salivary viral load below LLOQ (500 copies/mL) (SARS-CoV-2 [11]; absence of another antiviral, day 11 (3 of 3), SoC 60%): 100%
rate of viral clearance (SARS-CoV-2 [11]; day 11, all patients, SoC 57%): 100%
patients with salivary viral load below LLOQ (500 copies/mL) (SARS-CoV-2 [11]; presence of another antiviral (remdesivir or favipiravir), day 8 (9 of 11), SoC 54%): approximately 82%
patients with salivary viral load below LLOQ (500 copies/mL) (SARS-CoV-2 [11]; presence of another antiviral (remdesivir or favipiravir), day 11 (9 of 9), SoC 56%): 100%
Sensitive to Bemcentinib (SARS-CoV-2 [12]; lung line 820): Yes
Sensitive to Bemcentinib (SARS-CoV-2 [12]; lung line CalU3): No
Sensitive to Bemcentinib (SARS-CoV-2 [12]; lung line H322): Yes
Sensitive to Bemcentinib (SARS-CoV-2 [12]; lung line H1650): Yes
Sensitive to Bemcentinib (SARS-CoV-2 [12]; lung line H1819): No
Sensitive to Bemcentinib (SARS-CoV-2 [12]; lung line H3255): No
Sensitive to Bemcentinib (SARS-CoV-2 [12]; lung line HCC1944): Mixed findings
Sensitive to Bemcentinib (SARS-CoV-2 [12]; lung line HCC2302): Yes
Sensitive to Bemcentinib (SARS-CoV-2 [12]; lung line HCC4207): Mixed findings
Sensitive to Bemcentinib (SARS-CoV-2 [12]; lung line HCC4256): No
Sensitive to Bemcentinib (SARS-CoV-2 [12]; lung line HSAEC13): Mixed findings
sensitivity of SARS-CoV-2 infection to inhibitor (SARS-CoV-2 [12]): sensitive
Laboratory TRAE (haem or chemistry) (SARS-CoV-2 [13]; ACCORD-2): no TRAE haem or chemistry
QTcF prolongation (SARS-CoV-2 [13]; ACCORD-2): No reported QTcF prolongation
Mortality (SARS-CoV-2 [13]; by D29, of 30 patients, SoC 6 of 30): 1 patients
SARS-CoV-2 infection of CalU3 cells (viral load) (SARS-CoV-2 [14]): did not inhibit
virus load in liver (MHV; C57BL/6 mice, 50,000 iu MHV, versus pooled untreated and vehicle only groups, Student's t test): significantly reduced virus load
type I interferon responses (IFN related gene expression) (MHV; MHV-infected C57BL/6 mice, day 3, spleen and liver RNA): enhancing type I interferon responses

CC(C)C[C@H](NC(=O)[C@H]1O[C@@H]1C(=O)O)C(=O)NCCCCN=C(N)N [E64]
WT SARS-CoV-2 infection of Vero E6 cells (viral load) (SARS-CoV-2 [15]): blocked infection
sensitivity of SARS-CoV-2 infection to inhibitor (SARS-CoV-2 [12]): sensitive
hACE2-dependent pseudovirion infection (luminescence) [1]: effectively blocked infection
